# Laboratory results reported in patent US4255183A, “Substituted phenyl urea and herbicides for use in paddy field” (Hokko Chemical Industry Co., Ltd., priority 1977, dated 1981).
# Like-named read-outs stand apart in the source and are kept apart here.
# Columns and labels:
# [1] = test system: Echinochloa crus-galli var. oryzicola; assay: Test Example 1: pot test on selectivity, inhibition of Echinochloa crus-galli var. oryzicola; assay type: in vivo; conditions: 75 g/10 are, dry weight 30 days after treatment
# How it was run: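 Paddy soil pots were sown with 50 barnyard grass and 30 rice seeds under about 1 cm flooding, and emulsion at set concentrations was dripped in at the weed's 1-leaf and 5-leaf stages. After 30 days, dry weights of weed and rice gave inhibition versus untreated.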
# [2] = test system: paddy rice; assay: Test Example 1: pot test on selectivity, inhibition of paddy rice; assay type: in vivo; conditions: dry weight 30 days after treatment
# How it was run: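 Alluvial paddy soil in pots sown with Echinochloa crus-galli var. oryzicola (50 seeds) and paddy rice (30 seeds), submerged about 1 cm. Dry weights taken 30 days after chemical treatment; inhibition rate calculated relative to untreated area.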
# [3] = test system: Echinochloa crus-galli var. oryzicola; assay: Test Example 2: concrete pot test on killing effect, Echinochloa crus-galli var. oryzicola; assay type: in vivo; conditions: Echinochloa crus-galli, 720 h, granule, 30 days after treatment; for inhibition at 1000 g/ha: 100 g/10 are; for inhibition at 3000 g/ha: 300 g/10 are; for inhibition at 9000 g/ha: 900 g/10 are
# How it was run: (§1)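 Barnyardgrass seeded in flooded alluvial paddy soil (~3 cm water) in concrete pots, with 2.5-leaf Asahi rice transplanted before weed emergence. Granules applied at weed 1-leaf or 5-leaf stage. Dry weights measured 30 days after treatment; inhibition rate calculated versus untreated area.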
# [4] = test system: paddy rice; assay: whole plant or invertebrate; assay type: in vivo, paddy rice (Asahi species); conditions: Oryza sativa, 720 h, granule, 30 days; for inhibition at 1000 g/ha: 100 g/10 are; for inhibition at 3000 g/ha: 300 g/10 are; for inhibition at 9000 g/ha: 900 g/10 are
# How it was run: as §1
# [5] = test system: Echinochloa crus-galli var. oryzicola; assay: Test Example 3: field test in transplanted paddy field, Echinochloa crus-galli var. oryzicola; assay type: in vivo; conditions: Echinochloa crus-galli, 1440 h; 300 g/10 are, granule, applied at 4-leaf stage, examined 60 days after transplantation; read-out: Inhibition (%) of E. crus-galli var. oryzicola
# Method: (§2) In a Wagner pot of 1/500 are, paddy field soil (alluvial soil) was placed and 50 seeds of Echinochloa crus-galli var. oryzicola and 30 seeds of paddy rice were seeded in the surface layer of said soil and the submerging depth was kept at about 1 cm. When Echinochloa crus-galli var. oryzicola reached at the one leaf stage and 5-leaf stage, the emulsion of a predetermined concentration, prepared according to Example 4 was added dropwise. After 30 days from the treatment with the chemical, dry weights of Echinochloa crus-galli var. oryzicola and paddy rice were measured and the inhibition rate was calculated with reference to untreated area. [formula]
# (§3) In a 10 m^2 paddy field, young seedlings of paddy rice (Asahi species) at the 2,5-leaf stage were transplanted 30 days after the puddling the submerging at the depth of 3-5 cm. 25 Days after the transplantation, when Echinochloa crus-galli var. oryzicola reached 4-leaf stage, a predetermined dose of the granule prepared according to Example 1 was applied. Test results were examined 60 days after the transplantation of paddy rice in the similar manner as in Test Example 1.
# (§4) Comparative chemicals used were all those commercially available and in the case of the comparative chemical 2, CNP was applied 3 days after the transplantation of paddy rice and after 25 days a mixture of Benthiocarb and Simetryne was applied.
# [6] = test system: paddy rice; assay: Test Example 3: field test in transplanted paddy field, paddy rice; assay type: in vivo, paddy rice (Asahi species); conditions: Oryza sativa; 300 g/10 are, granule, applied 25 days after transplantation, examined 60 days after transplantation
# Method: as §2, §3, §4
# [7] = test system: paddy rice; assay: Test Example 4: field test in submerged directly seeded paddy field, paddy rice; assay type: in vivo, paddy rice (Asahi species); conditions: Oryza sativa, 504 h; 300 g/10 are, emulsion, 2- to 3-leaf stage, 21 days after application
# Method: as §2
# In a 10 m^2 paddy field, 30 g of Echinochloa crus-galli var. oryzicola seeds were seeded at the time of puddling and the depth of submerging was kept at 3-5 cm. 3 Days after the puddling, 50 g of paddy rice at the emergence stage (Asahi species) were seeded. When Echinochloa crus-galli var. oryzicola and paddy rice reached a 2- to 3-leaf stage, a predetermined dose of the emulsion prepared according to Example 4 was applied uniformly by means of a manual spraying machine. Test results were examined 21 days after the application of the chemicals in the similar manner as in Test Example 1.
# The comparative chemical 1 used was that commercially available and the comparative chemical 2 used was prepared according to Example 4.
# [8] = Acute oral toxicity; conditions: in vivo, SD-strain rat
# Method: (§5) Acute oral toxicity LD50 value of the compound of the invention measured on SD-strain rat is more than 2,000 mg/Kg for any of the trans-form, cis-form and a mixture thereof in equal amount and further acute fish toxicity TLm value (as defined by Official Standard issued from Ministry of Agriculture & Forestry) measured on young carp is more than 20 ppm for any of the above compounds.
# [9] = Acute fish toxicity; conditions: in vivo; young carp, Official Standard of Ministry of Agriculture & Forestry; read-out: acute fish toxicity TLm
# Method: as §5
# [10] = read-out: Inhibition (%) by treatment at 1-leaf stage of E. crus-galli var. oryzicola, E. crus-galli var. oryzicola
# [11] = read-out: Inhibition (%) by treatment at 5-leaf stage of E. crus-galli var. oryzicola, E. crus-galli var. oryzicola
# [12] = rice at 3.5 leaves stage, read-out: Inhibition (%) by treatment at 1-leaf stage of E. crus-galli var. oryzicola, paddy rice
# [13] = rice at 7 leaves stage, read-out: Inhibition (%) by treatment at 5-leaf stage of E. crus-galli var. oryzicola, paddy rice
structure (smiles),measurement,setting,value
CC=CCOc1ccc(NC(=O)N(C)C)cc1 [Mixture of trans- and cis-forms 1:1],"Inhibition (%) by treatment at 1-leaf stage, E. crus-galli var. oryzicola",[1]; 1-leaf stage,96%
same,"Inhibition (%) by treatment at 5-leaf stage, E. crus-galli var. oryzicola",[1]; 5-leaf stage,83%
same,"Inhibition (%) by treatment at 1-leaf stage, paddy rice",[2]; 75 g/10 are,0%
same,"Inhibition (%) by treatment at 5-leaf stage, paddy rice",[2]; 75 g/10 are,0%
same,"Inhibition (%) by treatment at 1-leaf stage, paddy rice",[2]; 150 g/10 are,0%
same,"Inhibition (%) by treatment at 5-leaf stage, paddy rice",[2]; 150 g/10 are,0%
same,"Inhibition (%) by treatment at 1-leaf stage, paddy rice",[2]; 300 g/10 are,0%
same,"Inhibition (%) by treatment at 5-leaf stage, paddy rice",[2]; 300 g/10 are,0%
same,"Inhibition (%) by treatment at 1-leaf stage, paddy rice",[2]; 600 g/10 are,0%
same,"Inhibition (%) by treatment at 5-leaf stage, paddy rice",[2]; 600 g/10 are,0%
same,"Inhibition (%) by treatment at 1-leaf stage, paddy rice",[2]; 900 g/10 are,3%
same,"Inhibition (%) by treatment at 5-leaf stage, paddy rice",[2]; 900 g/10 are,0%
same,inhibition at 1000 g/ha,[3]; [10],100%
same,inhibition at 1000 g/ha,[3]; [11],100%
same,inhibition at 3000 g/ha,[3]; [10],100%
same,inhibition at 3000 g/ha,[3]; [11],100%
same,inhibition at 9000 g/ha,[3]; [10],100%
same,inhibition at 9000 g/ha,[3]; [11],100%
same,inhibition at 1000 g/ha,[4]; [12],0%
same,inhibition at 1000 g/ha,[4]; [13],0%
same,inhibition at 3000 g/ha,[4]; [12],0%
same,inhibition at 3000 g/ha,[4]; [13],0%
same,inhibition at 9000 g/ha,[4]; [12],0%
same,inhibition at 9000 g/ha,[4]; [13],0%
same,inhibition at 3000 g/ha,[5],100%
same,inhibition at 3000 g/ha,[6],0%
same,inhibition at 3000 g/ha,[7],0%
same,LD50,[8],> 2000 mg/kg
same,LC50,[9],> 20 µg/mL
